Results published in ChEMBL document CHEMBL4270670 (J Med Chem, 2018).

What was measured:
in vitro [1] = settings: dog, MDCK cells
in vitro [2] = settings: chicken, chicken embryo fibroblasts
Influenza A virus [3] = experiment: microbe, parasite or virus in culture; settings: A/Puerto Rico/8/1934(H1N1), MDCK, 48 h
Influenza B virus = settings: mdck
Influenza A virus [4] = experiment: microbe, parasite or virus in culture; settings: MDCK, 48 h
Rattus norvegicus [5] = experiment: Cmax in Sprague-Dawley rat at 20 mg/kg, po by LC-MS analysis; assay type: ADME, organism-based; design: dose 20 mg/kg, route oral; settings: in vivo
[6] = MRT (0 to infinity) in Sprague-Dawley rat at 20 mg/kg, po by LC-MS analysis; assay type: ADME, organism-based; settings: in vivo
Rattus norvegicus [7] = organism: Rattus norvegicus; settings: in vivo, po, 20 mg/kg
Rattus norvegicus [8] = experiment: Half life in Sprague-Dawley rat at 20 mg/kg, po by LC-MS analysis; assay type: ADME, organism-based; settings: in vivo
in vivo = settings: Sprague-Dawley, rat, po, 20 mg/kg
[9] = Oral bioavailability in Sprague-Dawley rat at 20 mg/kg by LC-MS analysis; assay type: ADME, organism-based; settings: in vivo
Rattus norvegicus [10] = experiment: Tmax in Sprague-Dawley rat at 20 mg/kg, po by LC-MS analysis; assay type: ADME, organism-based; settings: in vivo
Influenza A virus [11] = experiment: Antiviral activity against Influenza A virus H5N2 infected in specific pathogen free embryonated egg assessed as survival rate at 10 mM preincubated for 1 hr prior to inoculation measured after 48 hrs (reference value: 0%); assay type: functional
Influenza A virus [12] = experiment: Antiviral activity against Influenza A virus H5N2 infected in specific pathogen free embryonated egg assessed as survival rate at 0.039 mM preincubated for 1 hr prior to inoculation measured after 72 hrs (reference value: 0%); assay type: functional
Influenza A virus [13] = experiment: Antiviral activity against Influenza A virus H5N2 infected in specific pathogen free embryonated egg assessed as survival rate at 10 mM preincubated for 1 hr prior to inoculation measured after 72 hrs (reference value: 0%); assay type: functional
Influenza A virus [14] = experiment: Antiviral activity against Influenza A virus H5N2 infected in specific pathogen free embryonated egg assessed as survival rate at 0.625 mM preincubated for 1 hr prior to inoculation measured after 72 hrs (reference value: 0%); assay type: functional
Influenza A virus [15] = experiment: Antiviral activity against Influenza A virus H5N2 infected in specific pathogen free embryonated egg assessed as survival rate at 0.625 mM preincubated for 1 hr prior to inoculation measured after 48 hrs (reference value: 0%); assay type: functional
Influenza A virus [16] = experiment: Antiviral activity against Influenza A virus H5N2 infected in specific pathogen free embryonated egg assessed as survival rate at 0.039 mM preincubated for 1 hr prior to inoculation measured after 48 hrs (reference value: 0%); assay type: functional
Influenza A virus [17] = experiment: Antiviral activity against Influenza A virus H5N2 infected in specific pathogen free embryonated egg assessed as survival rate at 0.156 mM preincubated for 1 hr prior to inoculation measured after 72 hrs (reference value: 0%); assay type: functional
Influenza A virus [18] = experiment: Antiviral activity against Influenza A virus H5N2 infected in specific pathogen free embryonated egg assessed as survival rate at 0.156 mM preincubated for 1 hr prior to inoculation measured after 48 hrs (reference value: 0%); assay type: functional
Influenza A virus [19] = experiment: Antiviral activity against Influenza A virus H5N2 infected in specific pathogen free embryonated egg assessed as survival rate at 2.5 mM preincubated for 1 hr prior to inoculation measured after 72 hrs (reference value: 0%); assay type: functional
Influenza A virus [20] = experiment: Antiviral activity against Influenza A virus H5N2 infected in specific pathogen free embryonated egg assessed as survival rate at 2.5 mM preincubated for 1 hr prior to inoculation measured after 48 hrs (reference value: 0%); assay type: functional
in vitro [21] = settings: human, plasma
in vitro [22] = settings: human, plasma; remark: listed apart in the source
in vitro [23] = settings: human, plasma; remark: listed apart in the source
in vitro [24] = settings: human, plasma; remark: listed apart in the source

`CCC(CC)O[C@@H]1C=C(C(=O)O)C[C@H](NCc2ccc(SC3CCCCC3)cc2)[C@H]1NC(C)=O` gave a CC50 at 48 h (in vitro [1]) greater than 250 µM, a CC50 at 48 h (in vitro [2]) greater than 200 µM and an EC50 (Influenza A virus [3]) of 17 µM. For the same compound, the EC50 (Influenza B virus) was greater than 100 µM and the EC50 (Influenza A virus [4]) was greater than 100 µM.
Work on `CCC(CC)O[C@@H]1C=C(C(=O)O)C[C@H](NCc2ccc(C(=O)c3ccccc3)cc2)[C@H]1NC(C)=O` yielded a CC50 at 48 h (in vitro [2]) greater than 200 µM.
`CCC(CC)O[C@@H]1C=C(C(=O)O)C[C@H](NCc2ccc(Sc3cccs3)cc2)[C@H]1NC(C)=O` gave a CC50 at 48 h (in vitro [1]) greater than 250 µM, a CC50 at 48 h (in vitro [2]) greater than 200 µM and an EC50 (Influenza A virus [3]) of 0.04 µM. It also gave an EC50 (Influenza B virus) of 8.5 µM and an EC50 (Influenza A virus [4]) of 79 µM.
With `CCC(CC)O[C@@H]1C=C(C(=O)O)C[C@H](NCc2ccc(C(C)C)cc2)[C@H]1NC(C)=O` the CC50 at 48 h (in vitro [2]) was greater than 200 µM.
`CCC(CC)O[C@@H]1C=C(C(=O)O)C[C@H](NCc2cccc(SC(C)CC)c2)[C@H]1NC(C)=O` (stereo partly specified) showed a CC50 at 48 h (in vitro [2]) greater than 200 µM.
`CCC(CC)O[C@@H]1C=C(C(=O)O)C[C@H](NCc2ccc(Oc3ccccc3)cc2)[C@H]1NC(C)=O` showed a CC50 at 48 h (in vitro [2]) greater than 200 µM.
In the case of `CCC(CC)O[C@@H]1C=C(C(=O)O)C[C@H](NCc2ccc(SCC(C)C)cc2)[C@H]1NC(C)=O`, the CC50 at 48 h (in vitro [2]) is reported as greater than 200 µM.
Work on `NC(=O)c1ncn([C@@H]2O[C@H](CO)[C@@H](O)[C@H]2O)n1` [RIBAVIRIN] yielded a CC50 at 48 h (in vitro [2]) greater than 200 µM.
`CCc1ccc(CN[C@H]2CC(C(=O)O)=C[C@@H](OC(CC)CC)[C@@H]2NC(C)=O)cc1` showed a CC50 at 48 h (in vitro [2]) greater than 200 µM.
For `CCOC(=O)C1=C[C@@H](OC(CC)CC)[C@H](NC(C)=O)[C@@H](NCc2ccc(Sc3ccccc3)cc2)C1`, the Cmax (Rattus norvegicus [5]) was 445.6 µg/mL, the MRT inf [6] was 17.1 h and the AUC (Rattus norvegicus [7]) was 1594.62 ng·h/mL. It also gave a t1/2 (Rattus norvegicus [8]) of 8.68 h, an AUC(0-t) (in vivo) of 1040 ng·h/mL and a bioavailability [9] of 7.1%. It also gave a Tmax (Rattus norvegicus [10]) of 0.57 h.
For `CCC(CC)O[C@@H]1C=C(C(=O)O)C[C@H](N)[C@H]1NC(C)=O` [OSELTAMIVIR CARBOXYLATE], the survival at 10000 µM (Influenza A virus [11]) was 60%, the survival at 39 µM (Influenza A virus [12]) was 0% and the CC50 at 48 h (in vitro [1]) was greater than 250 µM. The survival at 10000 µM (Influenza A virus [13]) was 0%, the survival at 625 µM (Influenza A virus [14]) was 0% and the survival at 625 µM (Influenza A virus [15]) was 0%. For the same compound, the survival at 39 µM (Influenza A virus [16]) was 0%, the survival at 156 µM (Influenza A virus [17]) was 0% and the CC50 at 48 h (in vitro [2]) was greater than 200 µM. The survival at 156 µM (Influenza A virus [18]) was 0%, the EC50 (Influenza A virus [3]) was 0.041 µM and the EC50 (Influenza B virus) was 2.9 µM. It also gave an EC50 (Influenza A virus [4]) of 1.2 µM, a survival at 2500 µM (Influenza A virus [19]) of 0% and a survival at 2500 µM (Influenza A virus [20]) of 20%.
In the case of `CC(C)[N+](C)(CCOC(=O)C1c2ccccc2Oc2ccccc21)C(C)C.[Br-]` [PROPANTHELINE BROMIDE], the half-life at 2 µM (in vitro [21]) is reported as 0.18 h, the remaining at 10 min, 2 µM (in vitro [22]) is reported as 54.9% and the remaining at 1 h, 2 µM (in vitro [23]) is reported as 2.1%. It also gave a remaining at 0.5 h, 2 µM (in vitro [24]) of 19.1%.
In the case of `CCC(CC)O[C@@H]1C=C(C(=O)O)C[C@H](NCc2ccc(S(=O)(=O)c3ccccc3)cc2)[C@H]1NC(C)=O`, the CC50 at 48 h (in vitro [2]) is reported as greater than 200 µM.
Work on `CCC(CC)O[C@@H]1C=C(C(=O)O)C[C@H](NCc2ccc(-c3ccc(SC)cc3)cc2)[C@H]1NC(C)=O` yielded a CC50 at 48 h (in vitro [2]) greater than 200 µM.
Work on `CCC(CC)O[C@@H]1C=C(C(=O)O)C[C@H](NCc2ccc(OC(C)C)cc2)[C@H]1NC(C)=O` yielded a CC50 at 48 h (in vitro [2]) greater than 200 µM.
Compound `CC(=O)N[C@H]1[C@H]([C@H](O)[C@H](O)CO)OC(C(=O)O)=C[C@@H]1NC(=N)N` [ZANAMIVIR] has a CC50 at 48 h (in vitro [1]) greater than 250 µM, a CC50 at 48 h (in vitro [2]) greater than 200 µM and an EC50 (Influenza A virus [3]) of 0.038 µM. The EC50 (Influenza B virus) was 0.9 µM and the EC50 (Influenza A virus [4]) was 0.3 µM.
